Measurements published in paper PMC8510344, “Bile-Acid-Appended Triazolyl Aryl Ketones: Design, Synthesis, In Vitro Anticancer Activity and Pharmacokinetics in Rats” (Molecules, 2021).
Several values for one entry are separate records, joined by “and”; a condition that tells them apart may be missing. Equal values may be shown once. Read-outs that look alike come from different tables or passages of the source.

Key:
[1] = system: Human cervix cancer cell line (HeLa); set-up: method as in PMID 23884119, PMID 25476168, PMID 30220830, PMID 23584541, PMID 28158265; details: literature example of Figure 1, cited from earlier work
[2] = system: 4T1 (mouse mammary carcinoma) cells; test: MTT cytotoxicity assay, 4T1; format: cell-based; details: for viability at 10 µM: 48 h exposure, read-out: % Cell Viability at 10 µM 4T1; for IC50: 48 h
Method: (§1) The cytotoxicity activity of all the conjugates (6aa–6df) was evaluated in vitro by MTT assay against two different breast cancer cell lines 4T1 (murine) and MCF-7 (human) and HEK 293 (human) as normal cell line. DTX was used as positive control. Cells were grown in DMEM supplemented with 10% FBS and 1% antibiotic solution and incubated at 5% CO2 and 37 °C for 24 h. The stock solutions of all the conjugates were prepared in DMSO and diluted for further use. Briefly, 5 × 10^3 cells/well were seeded in 96-well cell culture plates and allowed to adhere for 24 h. Cell inhibition (%) was determined after 48 h exposure to the compounds at 1–25 μM concentration. After 48 h, MTT assay was performed and the yellow tetrazolium salt (MTT) was reduced in metabolically active cells to form insoluble purple formazan crystals, which were solubilized by the addition of DMSO. The optical density (OD) was recorded at 560 nm and 630 nm as reference wavelength. Percentage cell inhibition was determined by comparison with untreated cells.

[3] = system: MCF-7 (human breast adenocarcinoma) cells; test: MTT cytotoxicity assay, MCF-7; format: cell-based; details: Homo sapiens, MCF7, 10 µM, 48 h exposure, read-out: % Cell Viability at 10 µM MCF-7
Method: as §1

[4] = Pharmacokinetic study in Wistar rats, i.v. bolus; format: in vivo; details: rat plasma, 10 mg/kg i.v. bolus
Method: Wistar rats (male; 8–10 weeks, 200–240 g) were procured from Central Animal Facility, BITS Pilani (Pilani, India). Animal experiment protocol was approved by Institutional Animal Ethics Committee (IAEC/RES/24/03), BITS Pilani, Pilani, and all experiments were conducted as per CPCSEA guidelines. Rats were housed in well-ventilated cages at standard laboratory conditions with regular light/dark cycles for 12 h and fed with standard normal diet ab libitum.
The pharmacokinetic study of 6cf was performed on Wistar rats. 6cf solution (prepared in normal saline with 5% w/v tween 80) was administered intravenously at the dose of 10 mg/kg with maximum dosing volume of 300 µL to each rat without fasting (n = 4). After i.v. dosing, blood samples were collected for each preset time point at 10, 20, 30, 50 min, 1.5, 2, 4, 6, 8, 12 and 24 h. 6cf plasma concentration–time profile was plotted and analyzed by non-compartmental model approach using Phoenix 2.1 WinNonlin (Pharsight Corporation, USA) to determine t1/2, elimination half-life; C0, drug concentration in plasma at t = 0; AUC0-t, area under curve from zero to the last time point; AUC0–∞, area under curve from zero to infinity; and MRT, mean residence time.
A simple liquid–liquid extraction (LLE) method was used for extraction of 6cf from the rat plasma. A 200 µL aliquot of plasma sample containing 6cf was taken in 5 mL glass tube, followed by the addition of 100 µL of internal standard (I.S.) (clobetasol, 2 µg/mL) solution. Samples were vortexed for 1 min, and then 2 mL of ethyl acetate was added as extracting solvent. The samples were vortexed for 5 min and centrifuged at 5000 rpm for 15 min at 4 °C. The organic layer was collected and evaporated to dryness at 40 ± 0.5 °C. The residue was reconstituted with 250 µL of mobile phase and vortexed for 1 min. Finally, 150 µL of sample was injected into HPLC for quantification.
A Thermo Fisher Rapid Separation (RS) UHPLC System (Ultimate 3000) equipped with a pump (LPG-3400SD), Diode Array Detector (DAD) (DAD-3000) and autosampler (ACC-3000T) with 250 µL injection loop was used for purity analysis. The UHPLC system was equilibrated for approximately 40 min before beginning the sample analysis. Column temperature was 35° throughout the analysis. 6cf and I.S. were separated on Intersil® ODS (C18) column (250 × 4.6 mm, 5µm) with a mobile phase consisting of acetonitrile:water (60:40 % v/v) run in isocratic mode at a flow rate of 1 mL/min, detection wavelength 259 nm and injection volume of 150 µL. […] Control of hardware and data handling was performed using Chromeleon software version 7.2 SR4.

[5] = system: 4T1 cells; test: Annexin V/PI apoptosis assay by flow cytometry, 4T1; format: cell-based, mouse; details: 6af at 12.84 µM, 6cf at 8.76 µM (respective IC50), 48 h
Method: (§2) The extent of apoptosis induced by compounds 6af and 6cf in MCF-7 and 4T1 cells was quantified by flow cytometry according to the manufacturer’s protocol. Briefly, cells were seeded in a 6-well plate at a cell density of 1 × 10^6 cells/well. After 24 h, the media was discarded and cells were treated with fresh media containing compounds 6af and 6cf at their respective IC50 concentrations for 48 h. After treatment, cells were trypsinized, harvested in PBS and collected by centrifugation for 5 min at 2000 rpm. Cells were then resuspended in 1X binding buffer and stained with FITC-labeled Annexin V Alexa Fluor 488 (5 μL) and propidium iodide (10 μL). Cells were analyzed using flow cytometer (Beckman Coulter), and data were analyzed with CytExpert software.

[6] = system: MCF-7 cells; test: Annexin V/PI apoptosis assay by flow cytometry, MCF-7; format: cell-based, human; details: 6af at 2.61 µM, 6cf at 5.71 µM (respective IC50), 48 h
Method: as §2

[7] = MTT cytotoxicity assay, normal cell line HEK 293; format: cell-based; details: human, HEK 293 cells, HEK 293 normal cells, 48 h exposure
Method: as §1

[8] = system: leukemia cell line (K562); details: cited from earlier work
[9] = system: leukemia cell line (Jurkat); set-up: method as in doi:10.1039/c3nj00513e; details: cited from earlier work
[10] = system: Lymphoblastic leukemia cell line (CCRF-CEM); set-up: method as in PMID 23291595; details: cited from earlier work
[11] = system: Human prostate cancer cell line (PC-3); set-up: method as in PMID 23884119, PMID 25476168, PMID 30220830, PMID 23584541, PMID 28158265; details: literature example of Figure 1; cited from earlier work

Cc1cccc(-c2cn(CC3CC4C5CC=C6CC(O)CCC6(C)C5CCC4(C)C3O)nn2)c1 (stereo not shown) [II]
% Growth Inhibition at 30 μM HeLa [1]: 96.9%

C[C@H](CCC(=O)NCc1cn(CC(=O)c2ccc(Br)cc2)nn1)C1CCC2C3C(C[C@H](O)[C@@]21C)[C@@]1(C)CC[C@@H](O)CC1C[C@H]3O (stereo partly drawn) [6cf, (4R)-N-((1-(2-(4-Bromophenyl)-2-oxoethyl)-1H-1,2,3-triazol-4-yl)methyl)-4-((3R,7R,10S,12S,13R)-3,7,12-trihydroxy-10,13-dimethylhexadecahydro-1H-cyclopenta[a]phenanthren-17-yl)pentanamide]
viability at 10 µM ([2]; Mus musculus): 49.3%
viability at 10 µM [3]: 37.5%
C0 ([4]; male, Wistar, iv, conversion of 1752.69 ng/mL, read-out: initial concentration converted to molar): ~2560 nM
AUC(0-t) ([4]; male, Wistar, iv, mean ± SEM, read-out: Area Under the Curve (0 to 12 h), AUC0–last): 2000 ± 87.4 ng·h/mL
AUC(0-inf) ([4]; male, Wistar, iv, mean ± SEM, read-out: Area Under the Curve (0 to infinity), AUC0–∞): 2690 ± 113 ng·h/mL
k el ([4]; male, Wistar, iv, mean ± SEM, read-out: Elimination Rate Constant, Ke (converted)): 3.61e-05 s⁻¹
half-life ([4]; male, Wistar, iv, mean ± SEM, read-out: Half-Life, t1/2 (converted)): 5.63 ± 0.539 h
C0 ([4]; male, Wistar, iv, mean ± SEM, read-out: Initial Concentration, C0): 1750 ± 66.5 ng/mL
MRT ([4]; male, Wistar, iv, mean ± SEM, read-out: Mean Residence Time, MRT): 8.47 ± 0.96 h
Area Under the First Moment Curve (0 to 12 h), AUMC0–last ([4]; mean ± SEM): 8155.94 ± 311.78 ng·h/mL
Area Under the First Moment Curve (0 to infinity), AUMC0–∞ ([4]; mean ± SEM): 22276.39 ± 2023.334 ng·h/mL
melting point: 144 to 145 °C
total apoptosis in 4T1 cells [5]: 19.56%
apoptosis (total) in MCF-7 cells [6]: 46.09%
viability at 48 h, 10 µM [7]: > 86%

CC(C)CCCC(C)C1CCC2C3CCC4CC(=O)C(n5cc(-c6ccccn6)nn5)CC4(C)C3CCC12C (stereo not shown) [III]
% Growth Inhibition at 30 μM HeLa [1]: 43.5%

COC(=O)CCC(C)C1CCC2C3C(O)CC4CC(n5cc(CCCC#Cc6nc7c(N)ncnc7n6C6CC(O)C(CO)O6)nn5)CCC4(C)C3CCC12C (stereo not shown) [VII]
IC50 [8]: 8.51 µM and 8.5 µM
IC50 [9]: 10.5 ± 2.64 µM

CC(CCn1cc(CCCCC#Cc2nc3c(N)ncnc3n2C2CC(O)C(CO)O2)nn1)C1CCC2C3C(O)CC4CC(O)CCC4(C)C3CCC12C (stereo not shown) [VI]
IC50 [8]: 16.2 ± 2.2 µM

COc1ccc2c(c1)CCC1C2CCC2(C)C(O)C(n3cc(-c4ccc(C(C)(C)C)cc4)nn3)CC12 (stereo not shown) [IV]
IC50 [1]: 5.08 µM

CC(CCC(=O)OCc1cn(Cc2cccc(Cn3cc(COC(=O)CCC(C)C4CCC5C6C(O)CC7CC(O)CCC7(C)C6CC(O)C45C)nn3)n2)nn1)C1CCC2C3C(O)CC4CC(O)CCC4(C)C3CC(O)C12C (stereo not shown) [V]
IC50 [10]: 3.98 µM

CC(=O)c1ccc(OCc2cn(CC(=O)C3CCC4C5CC=C6CC(O)CCC6(C)C5CCC34C)nn2)cc1 (stereo not shown) [I]
IC50 [11]: 0.03 µM

C[C@H](CCC(=O)OCc1cn(CC(=O)c2ccc(Br)cc2)nn1)C1CCC2C3C(C[C@H](O)[C@@]21C)[C@@]1(C)CC[C@@H](O)CC1C[C@H]3O (stereo partly drawn) [6af, (1-(2-(4-Bromophenyl)-2-oxoethyl)-1H-1,2,3-triazol-4-yl)methyl (4R)-4-((3R,7R,10S,12S,13R)-3,7,12-trihydroxy-10,13-dimethylhexadecahydro-1H-cyclopenta[a]phenanthren-17-yl)pentanoate]
IC50 [2]: 12.8 ± 1.8 µM
viability at 10 µM ([2]; Mus musculus): 55.9%
IC50 ([2]; Mus musculus): < 19 µM
viability at 10 µM [3]: 26.5%
melting point: 159 to 160 °C
total apoptosis in 4T1 cells [5]: 19.02%
apoptosis (total) in MCF-7 cells [6]: 33.89%
viability at 48 h, 10 µM [7]: > 86%

Cc1ccc(C(=O)Cn2cc(CNC(=O)CC[C@@H](C)C3CCC4C5CCC6C[C@H](O)CC[C@]6(C)C5C[C@H](O)[C@@]43C)nn2)cc1 (stereo partly drawn) [6db, (4R)-4-((3R,10S,12S,13R)-3,12-Dihydroxy-10,13-dimethylhexadecahydro-1H-cyclopenta[a]phenanthren-17-yl)-N-((1-(2-oxo-2-(p-tolyl)ethyl)-1H-1,2,3-triazol-4-yl)methyl)pentanamide]
viability at 10 µM ([2]; Mus musculus): 53.7%
viability at 10 µM [3]: 78.7%
melting point: 112 to 115 °C
viability at 48 h, 10 µM [7]: 89.4%

C[C@H](CCC(=O)OCc1cn(CC(=O)c2ccc(Cl)cc2)nn1)C1CCC2C3CCC4C[C@H](O)CC[C@]4(C)C3C[C@H](O)[C@@]21C (stereo partly drawn) [6be, (1-(2-(4-Chlorophenyl)-2-oxoethyl)-1H-1,2,3-triazol-4-yl)methyl (4R)-4-((3R,10S,12S,13R)-3,12-dihydroxy-10,13-dimethylhexadecahydro-1H-cyclopenta[a]phenanthren-17-yl)pentanoate]
viability at 10 µM ([2]; Mus musculus): 76%
viability at 10 µM [3]: 68.5%
melting point: 92 to 93 °C
viability at 48 h, 10 µM [7]: 88.4%

Cc1ccc(C(=O)Cn2cc(COC(=O)CC[C@@H](C)C3CCC4C5CCC6C[C@H](O)CC[C@]6(C)C5C[C@H](O)[C@@]43C)nn2)cc1 (stereo partly drawn) [6bb, (1-(2-Oxo-2-(p-tolyl)ethyl)-1H-1,2,3-triazol-4-yl)methyl (4R)-4-((3R,10S,12S,13R)-3,12-dihydroxy-10,13-dimethylhexadecahydro-1H-cyclopenta[a]phenanthren-17-yl)pentanoate]
viability at 10 µM ([2]; Mus musculus): 85.7%
viability at 10 µM [3]: 67.6%
melting point: 123 to 125 °C
viability at 48 h, 10 µM [7]: 89.2%
